Measurements from patent US7160901B2, “Substituted indolinones, preparation thereof and their use as pharmaceutical compositions” (Boehringer Ingelheim Pharma GmbH & Co. KG, priority 2000, dated 2007).

Each compound was assayed on Leiomyosarcoma tumour cell line SK-UT-1B (assay: Test 1: inhibition of the proliferation of cultivated human tumour cells (14C-thymidine incorporation), SK-UT-1B). Conditions: Homo sapiens, Skut1B; in vitro Test 1; SK-UT-1B cells; 48 hours' incubation, then 14C-thymidine for a further 24 hours; IC50 of inhibition of incorporated 14C-thymidine; read-out: Inhibition of SKUT-1B proliferation.
Type: cell-based
Source text: Inhibition of the Proliferation of Cultivated Human Tumour Cells
Cells of the Leiomyosarcoma tumour cell line SK-UT-1B or non-small-cell lung tumour cell line NCI-H460 (obtained from the American Type Culture Collection (ATCC)) were cultivated in Minimum Essential Medium with non-essential amino acids (Gibco), supplemented with sodium pyruvate (1 mMol), glutamine (2 mMol) and 10% foetal calf serum (Gibco) or RPMI1640 Medium (Gibco) and 10% foetal calf serum (Gibco) and harvested in the logarithmic growth phase. Then the SK-UT-1B cells were placed in Cytostar® multi-well plates (Amersham) at a density of 4000 cells per well or 3000 cells per well for NCI-H460 cells and incubated overnight in an incubator. Various concentrations of the compounds (dissolved in DMSO; final concentration: 0.1%) were added to the cells. After 48 hours' incubation, ^14C-thymidine (Amersham) was added to each well and incubation was continued for a further 24 hours. The quantity of ^14C-thymidine which was incorporated into the tumour cells in the presence of the inhibitor and which represents the number of cells in the S phase was measured in a Wallace 1450 Microbeta Liquid Scintillation Counter. IC50 values for the inhibition of the proliferation (=inhibition of incorporated ^14C-thymidine) were calculated, correcting for the background radiation. All the measurements were done twice.
The following Table contains the results obtained with the in vitro Test 1 (++ denotes <0.01 μM, + denotes 0.01–1.0 μM): […]

SMILES	IC50
CN1CCN(Cc2ccc(N/C(=C3\C(=O)Nc4ccc(NS(=O)(=O)c5ccccc5)cc43)c3ccccc3)cc2)CC1 [Example 9, (Z)-3-{1-[4-(4-methylpiperazinomethyl)-phenylamino]-1-phenyl-methylidene}-5-phenylsulphonylamino-2-indolinone]	10 to 1000 nM
O=C1Nc2ccc(NS(=O)(=O)c3ccccc3)cc2/C1=C(/Nc1ccc(CN2CCCC2)cc1)c1ccccc1 [Example 12, (Z)-3-{1-[4-(pyrrolidin-1-ylmethyl)-phenylamino]-1-phenyl-methylidene}-5-phenylsulphonylamino-2-indolinone]	10 to 1000 nM
O=C1Nc2ccc(NS(=O)(=O)c3ccccc3)cc2/C1=C(/Nc1ccccc1)c1ccccc1 [Example 22, (Z)-3-(1-phenylamino-1-phenyl-methylidene)-5-phenylsulphonylamino-2-indolinone]	10 to 1000 nM
CCC(=O)NCCN(C(=O)CC)c1ccc(N/C(=C2\C(=O)Nc3ccc(NS(=O)(=O)c4ccccc4)cc32)c2ccccc2)cc1 [Example 31, (Z)-3-{1-[4-(N-(2-propionylamino-ethyl)-N-propionyl-amino)-phenylamino]-1-phenyl-methylidene}-5-phenylsulphonylamino-2-indolinone]	< 10 nM

Continued, values first:

IC50	SMILES
10 to 1000 nM	CS(=O)(=O)N(CCN)c1ccc(N/C(=C2\C(=O)Nc3ccc(NS(=O)(=O)c4ccccc4)cc32)c2ccccc2)cc1 [Example 2, (Z)-3-{1-[4-(N-(2-aminoethyl)-N-methylsulphonyl-amino)-phenylamino]-1-phenyl-methylidene}-5-phenylsulphonylamino-2-indolinone]
< 10 nM	CN(C)CCN(c1ccc(N/C(=C2\C(=O)Nc3ccc(NS(=O)(=O)c4ccccc4)cc32)c2ccccc2)cc1)S(=O)(=O)c1ccccc1 [Example 4, (Z)-3-{1-[4-(N-(2-dimethylaminoethyl)-N-phenylsulphonyl-amino)-phenylamino)-1-phenyl-methylidene}-5-phenylsulphonylamino-2-indolinone]
10 to 1000 nM	CC(=O)N(C)c1ccc(N/C(=C2\C(=O)Nc3ccc(NS(=O)(=O)c4ccccc4)cc32)c2ccccc2)cc1 [Example 20, (Z)-3-{1-[4-(N-methyl-N-acetyl-amino)-phenylamino]-1-phenyl-methylidene}-5-phenylsulphonylamino-2-indolinone]
10 to 1000 nM	O=C1Nc2ccc(NS(=O)(=O)c3ccccc3)cc2/C1=C(/Nc1ccc(Cl)cc1)c1ccccc1 [Example 23, (Z)-3-[1-(4-chlorophenylamino)-1-phenyl-methylidene]-5-phenylsulphonylamino-2-indolinone]
10 to 1000 nM	CN(c1ccc(N/C(=C2\C(=O)Nc3ccc(NS(=O)(=O)c4ccccc4)cc32)c2ccccc2)cc1)S(C)(=O)=O [Example 42, (Z)-3-[1-(4-(N-methyl-N-methylsulphonyl-amino)-phenylamino)-1-phenyl-methylidene]-5-phenylsulphonylamino-2-indolinone]
< 10 nM	CN(C(=O)CN1CCCCC1)c1ccc(N/C(=C2\C(=O)Nc3ccc(NS(=O)(=O)c4ccccc4)cc32)c2ccccc2)cc1 [Example 56, (Z)-3-[1-(4-(N-methyl-N-piperidinomethylcarbonyl-amino)-phenylamino)-1-phenyl-methylidene]-5-phenylsulphonylamino-2-indolinone]
10 to 1000 nM	O=C1Nc2ccc(NS(=O)(=O)Cc3ccccc3)cc2/C1=C(/Nc1ccc(CN2CCCC2)cc1)c1ccccc1 [Example 58, (Z)-3-{1-[4-(pyrrolidin-1-ylmethyl)-phenylamino]-1-phenyl-methylidene}-5-benzylsulphonylamino-2-indolinone]

Same assay, conditions: in vitro Test 1; SK-UT-1B cells; 48 hours' incubation, then 14C-thymidine for a further 24 hours; IC50 of inhibition of incorporated 14C-thymidine; read-out: Inhibition of SKUT-1B proliferation

SMILES	IC50
CN(C)Cc1ccc(N/C(=C2\C(=O)Nc3ccc(NS(=O)(=O)c4ccccc4)cc32)c2ccccc2)cc1 [Example 36, (Z)-3-[1-(4-dimethylaminomethyl-phenylamino)-1-phenyl-methylidene]-5-phenylsulphonylamino-2-indole]	< 10 nM
